From publication PMC12508156, “Non-canonical dihydrolipoyl transacetylase promotes chemotherapy resistance via mitochondrial tetrahydrofolate signaling” (Nature Communications, 2025)
pIC50: −log10 of the molar value. Where “and” joins values, the source holds several entries; their conditions need not be identical. Equal entries are not always repeated.

Columns and labels:
KB-3-1 cells = conditions: read-out: cisplatin IC50; parental KB-3-1 cells; cited from earlier work
Text: The RNAi library contains 328 shRNA clones, and each gene was targeted by 2 ~ 8 clones (Fig. 1a). Eleven genes, including DLAT, were selected as unexplored lead hits with cisplatin-sensitizing potential and were further evaluated in A549^cisR, H1299, and KB-3-1^cisR, and two acetyltrans ...

[1] = system: KB-3-1cisR xenograft tumors; experiment: KB-3-1cisR xenograft tumor growth (volume, weight); type: in vivo, athymic nu/nu mice; parameters: unit not given here; conditions: cisplatin 5 mg/kg i.p. twice a week, endpoint, n=1-8: individual mice, listed as cis
Procedure: All animal procedures were conducted based on the protocol (DAR-PROTO-201700885) approved by the Emory University Institutional Animal Care and Use Committee. Female athymic nu/nu mice (Hsd:Athymic Nude-Foxn1nu, 6-week-old; Envigo) were housed under specific pathogen-free (SPF) conditions in the Emory University animal facility. […] Mice were subcutaneously injected into the flank with 1 × 10^6 KB-3-1^cisR cells with or without DLAT knockdown. […] Tumors were collected at the experimental endpoint, and tumor proliferation was assessed using Ki-67 IHC staining. The localization, penetration, and efficacy of DMp39 were monitored by assessing the acetyl-[…] levels in tumors and fluorescence imaging analysis using an IVIS imaging system. Drug-induced organ toxicities, including splenomegaly, liver damage, and kidney injury, were monitored by assessing spleen index, alanine transaminase activity, and cystatin C levels in plasma.

[2] = system: A549cisR and KB-3-1cisR cells; experiment: Cell cycle distribution (propidium iodide, flow cytometry); type: cell-based, human
Procedure: Cell viability was determined using the CellTiter-Glo Luminescent Cell Viability Assay. […] Subsequently, the cells were cultured in complete medium for an additional 10 days, and the resulting colonies were visualized by staining with crystal violet and quantified using ImageJ software. For cell cycle analysis, cells fixed with 70% ethanol were stained with RNase A (100 µg/mL) and propidium iodide (50 μg/ml) for 30 min at 37 °C, and DNA content distribution was measured using flow cytometry (BD Symphony A3) and analyzed with FlowJo software (v10.9). Apoptotic cell death was assessed via FITC-conjugated annexin V and propidium iodide staining.
1cisR cells were transduced with DLAT-targeting shRNA and treated with sublethal doses of […]
antioxidant N-acetylcysteine (NAC). (a) Western blot analysis of p21 waf1/cip1 expression as a marker of cellular senescence. (b) Western blot analysis of LC3-I/II and p62 as markers of autophagy. (c) Cell cycle distribution was assessed by flow cytometry following propidium iodide staining. (d) Intracellular ROS levels were measured using the H2DCFDA probe. Error bars represent SD and are from 3 independent biological replicates for (c,d). P values were determined by one-way ANOVA.
(1 picture or pasted object on this page, not shown here)

PCI-37B cells = experiment: Apoptotic cell death (annexin V/PI staining); type: cell-based, human; conditions: cisplatin 1 μg/ml, 48 h, n=1-3: biological replicates
[3] = A549cisR cells, pLKO.1, replicate 1
[4] = A549cisR cells, pLKO.1, replicate 2
[5] = A549cisR cells, pLKO.1, replicate 3
[6] = A549cisR cells, shDLAT, replicate 1
[7] = A549cisR cells, shDLAT, replicate 2
[8] = A549cisR cells, shDLAT, replicate 3
[9] = KB-3-1cisR cells, pLKO.1, replicate 1
[10] = KB-3-1cisR cells, pLKO.1, replicate 2
[11] = KB-3-1cisR cells, pLKO.1, replicate 3
[12] = KB-3-1cisR cells, shDLAT, replicate 1
[13] = KB-3-1cisR cells, shDLAT, replicate 2
[14] = KB-3-1cisR cells, shDLAT, replicate 3

N.N.[Cl][Pt][Cl] [cisplatin]
pIC50 (KB-3-1 cells): 5.08 | Tumor weight ([1]; KB-3-1cisR pLKO.1 xenograft): 0.88 and 0.77 and 0.52 and 1.65 and 1.63 and 1.39 and 1.43 and 1.01 | Tumor weight ([1]; KB-3-1cisR shDLAT #1 xenograft): 0.29 and 0.41 and 0.58 and 0.1 and 0.06 and 0.15 and 0.16 and 0.23 | Tumor weight ([1]; KB-3-1cisR shDLAT #2 xenograft): 0.63 and 0.5 and 0.66 and 0.02 and 0.08 and 0.19 and 0.34 and 0.36 | Cell cycle, G1 phase [2, 3]: 34.1 | Cell cycle, G2 phase [2, 3]: 36.2 | Cell cycle, S phase [2, 3]: 29.7 | Cell cycle, G1 phase [2, 4]: 33.1 | Cell cycle, G2 phase [2, 4]: 39.3 | Cell cycle, G1 phase [2, 5]: 33.1 | Cell cycle, G2 phase [2, 5]: 38.8 | Cell cycle, S phase [2, 5]: 28.1 | Cell cycle, G1 phase [2, 6]: 39.2 | Cell cycle, G2 phase [2, 6]: 37.2 | Cell cycle, S phase [2, 6]: 23.6 | Cell cycle, G1 phase [2, 7]: 39.5 | Cell cycle, G2 phase [2, 7]: 39.6 | Cell cycle, S phase [2, 7]: 20.9 | Cell cycle, G1 phase [2, 8]: 39.5 | Cell cycle, G2 phase [2, 8]: 38.6 | Cell cycle, S phase [2, 8]: 21.9 | Cell cycle, G1 phase [2, 9]: 23.3 | Cell cycle, G2 phase [2, 9]: 58.9 | Cell cycle, S phase [2, 9]: 17.8 | Cell cycle, G1 phase [2, 10]: 23.7 | Cell cycle, G2 phase [2, 10]: 58.1 | Cell cycle, S phase [2, 10]: 18.2 | Cell cycle, G1 phase [2, 11]: 24.3 | Cell cycle, G2 phase [2, 11]: 57.9 | Cell cycle, S phase [2, 11]: 17.8 | Cell cycle, G1 phase [2, 12]: 18.3 | Cell cycle, G2 phase [2, 12]: 63.6 | Cell cycle, S phase [2, 12]: 18.1 | Cell cycle, G1 phase [2, 13]: 17.6 | Cell cycle, G2 phase [2, 13]: 63.5 | Cell cycle, S phase [2, 13]: 18.9 | Cell cycle, G1 phase [2, 14]: 17 | Cell cycle, S phase [2, 14]: 19.8 | Apoptotic death (PCI-37B cells; PCI-37B pLKO.1): 19.17 | Apoptotic death (PCI-37B cells; PCI-37B shDLAT #1): 38.02 | Apoptotic death (PCI-37B cells; PCI-37B shDLAT #2): 33.33 and 33.41 and 32.54
